Measured values: patent US8399476B2, “Imidazo[1,2-a]pyridines and their use as pharmaceuticals” (Sanofi, priority 2007, dated 2013)
Where a name gives a salt, the structure may show the parent alone.

Tested on: eNOS promoter
Test: Activation of eNOS transcription (eNOS promoter firefly luciferase reporter gene assay)
Assay type: cell-based
Conditions: human endothelial cell line stably transfected with eNOS promoter-luciferase construct, 18 h incubation; read-out: EC50 values of transcription induction ratios (TIR)
Protocol: Activation of eNOS transcription was measured as described in detail by Li et al., “Activation of protein kinase C alpha and/or epsilon enhances transcription of the human endothelial nitric oxide synthase gene”, Mol. Pharmacol. 53 (1998) 630. Briefly, a 3.5 kB long fragment 5′ of the starting codon of the eNOS gene was cloned, sequenced and cloned in firefly luciferase expression plasmids to monitor activation of the eNOS promoter by reporter gene activity. A human endothelial cell line stable transfected and expressing this promoter-reporter construct was used for compound testing. Cells were incubated for 18 h with the compounds.
All compounds were dissolved in sterile dimethyl sulfoxide (DMSO). A final concentration of 0.5% DMSO in complete medium was allowed. Induction of reporter gene expression in these cells was measured using a standard luciferase assay system (Promega, Cat. No. E150) according to the manufacturer's instructions. Luciferase induction in cells incubated with compounds were compared to those incubated with solvent alone. The ratio of both activities (transcription induction ratio, TIR) was plotted as a function of compound concentration. Typically, TIR values started at low concentrations at a ratio of 1, indicating no compound effect, and extended up to a maximum TIR value TIR(max) which indicates the increase of the eNOS transcription. EC50 values of transcription induction ratios as a function of compound concentration were determined graphically.

COC(=O)c1ccc2nc(-c3ccc(F)cc3)cn2c1 [Example 1, 2-(4-Fluoro-phenyl)-imidazo[1,2-a]pyridine-6-carboxylic acid methyl ester]
EC50: < 500 nM

COC(=O)c1ccc2nc(-c3ccc(Br)cc3)c(C)n2c1 [Example 2, 2-(4-Bromo-phenyl)-3-methyl-imidazo[1,2-a]pyridine-6-carboxylic acid methyl ester]
EC50: < 500 nM

COC(=O)c1ccc2nc(-c3ccccc3)c(C)n2c1 [Example 3, 3-Methyl-2-phenyl-imidazo[1,2-a]pyridine-6-carboxylic acid methyl ester]
EC50: < 500 nM

COC(=O)c1ccc2nc(-c3ccccc3F)cn2c1 [Example 5, 2-(2-Fluoro-phenyl)-imidazo[1,2-a]pyridine-6-carboxylic acid methyl ester]
EC50: < 500 nM

COC(=O)c1ccc2nc(-c3ccc(C)cc3)cn2c1 [Example 7, 2-p-Tolyl-imidazo[1,2-a]pyridine-6-carboxylic acid methyl ester]
EC50: < 500 nM

COC(=O)c1ccc2nc(-c3cccc([N+](=O)[O-])c3)cn2c1 [Example 8, 2-(3-Nitro-phenyl)-imidazo[1,2-a]pyridine-6-carboxylic acid methyl ester]
EC50: < 500 nM

COC(=O)c1ccc2nc(-c3ccc(OC)cc3)cn2c1 [Example 10, 2-(4-Methoxy-phenyl)-imidazo[1,2-a]pyridine-6-carboxylic acid methyl ester]
EC50: < 500 nM

COC(=O)c1ccc2nc(-c3ccc(Br)cc3)cn2c1 [Example 12, 2-(4-Bromo-phenyl)-imidazo[1,2-a]pyridine-6-carboxylic acid methyl ester]
EC50: < 500 nM

COC(=O)c1ccc2nc(-c3ccccc3)cn2c1 [Example 13, 2-Phenyl-imidazo[1,2-a]pyridine-6-carboxylic acid methyl ester]
EC50: < 500 nM

COC(=O)c1ccc2nc(-c3cccc(F)c3)cn2c1 [Example 14, 2-(3-Fluoro-phenyl)-imidazo[1,2-a]pyridine-6-carboxylic acid methyl ester]
EC50: < 500 nM

COC(=O)c1ccc2nc(-c3ccc(C(F)(F)F)cc3)cn2c1 [Example 15, 2-(4-Trifluoromethyl-phenyl)-imidazo[1,2-a]pyridine-6-carboxylic acid methyl ester]
EC50: < 500 nM

COC(=O)c1ccc2nc(-c3ccc(OC(F)(F)F)cc3)cn2c1 [Example 16, 2-(4-Trifluoromethoxy-phenyl)-imidazo[1,2-a]pyridine-6-carboxylic acid methyl ester]
EC50: < 500 nM

CCN(CC)c1ccc(-c2cn3cc(C(=O)OC)ccc3n2)cc1 [Example 17, 2-(4-Diethylamino-phenyl)-imidazo[1,2-a]pyridine-6-carboxylic acid methyl ester]
EC50: < 500 nM

COC(=O)c1ccc2nc(-c3ccc(F)c(F)c3)cn2c1 [Example 19, 2-(3,4-Difluoro-phenyl)-imidazo[1,2-a]pyridine-6-carboxylic acid methyl ester]
EC50: < 500 nM

COC(=O)c1ccc2nc(-c3ccccc3Cl)cn2c1 [Example 20, 2-(2-Chloro-phenyl)-imidazo[1,2-a]pyridine-6-carboxylic acid methyl ester]
EC50: < 500 nM

COC(=O)c1ccc2nc(-c3ccc(Br)c(S(N)(=O)=O)c3)cn2c1 [Example 21, 2-(4-Bromo-3-sulfamoyl-phenyl)-imidazo[1,2-a]pyridine-6-carboxylic acid methyl ester]
EC50: < 500 nM

COC(=O)c1ccc2nc(-c3cccc(C#N)c3)cn2c1 [Example 23, 2-(3-Cyano-phenyl)-imidazo[1,2-a]pyridine-6-carboxylic acid methyl ester]
EC50: < 500 nM

COC(=O)c1ccc2nc(-c3cccc(Br)c3)cn2c1 [Example 24, 2-(3-Bromo-phenyl)-imidazo[1,2-a]pyridine-6-carboxylic acid methyl ester]
EC50: < 500 nM

COC(=O)c1ccc2nc(-c3ccc(C)cc3C)cn2c1 [Example 25, 2-(2,4-Dimethyl-phenyl)-imidazo[1,2-a]pyridine-6-carboxylic acid methyl ester]
EC50: < 500 nM

COC(=O)c1ccc2nc(-c3ccc(Cl)cc3Cl)cn2c1 [Example 28, 2-(2,4-Dichloro-phenyl)-imidazo[1,2-a]pyridine-6-carboxylic acid methyl ester]
EC50: < 500 nM

COC(=O)c1ccc2nc(-c3cccc(Cl)c3)cn2c1 [Example 31, 2-(3-Chloro-phenyl)-imidazo[1,2-a]pyridine-6-carboxylic acid methyl ester]
EC50: < 500 nM

COC(=O)c1ccc2nc(-c3cc(F)cc(F)c3)cn2c1 [Example 32, 2-(3,5-Difluoro-phenyl)-imidazo[1,2-a]pyridine-6-carboxylic acid methyl ester]
EC50: < 500 nM

COC(=O)c1ccc2nc(-c3cccc(C(F)(F)F)c3)cn2c1 [Example 33, 2-(3-Trifluoromethyl-phenyl)-imidazo[1,2-a]pyridine-6-carboxylic acid methyl ester]
EC50: < 500 nM

COC(=O)c1ccc2nc(-c3ccc4c(c3)OCCO4)cn2c1 [Example 34, 2-(2,3-Dihydro-benzo[1,4]dioxin-6-yl)-imidazo[1,2-a]pyridine-6-carboxylic acid methyl ester]
EC50: < 500 nM

COC(=O)c1ccc2nc(-c3ccc(-c4ccccc4)cc3)cn2c1 [Example 37, 2-Biphenyl-4-yl-imidazo[1,2-a]pyridine-6-carboxylic acid methyl ester]
EC50: < 500 nM

COC(=O)c1ccc2nc(-c3ccc([N+](=O)[O-])cc3)cn2c1 [Example 38, 2-(4-Nitro-phenyl)-imidazo[1,2-a]pyridine-6-carboxylic acid methyl ester]
EC50: < 500 nM

COC(=O)c1ccc2nc3c(n2c1)Cc1ccccc1-3 [Example 42, 11H-Indeno[1′,2′:4,5]imidazo[1,2-a]pyridine-8-carboxylic acid methyl ester]
EC50: < 500 nM

COC(=O)c1ccc2nc(-c3ccc(N)cc3)cn2c1 [Example 44, 2-(4-Amino-phenyl)-imidazo[1,2-a]pyridine-6-carboxylic acid methyl ester]
EC50: < 500 nM

Cc1ccc(-c2cn3cc(C(=O)O)ccc3n2)cc1 [Example 46, 2-p-Tolyl-imidazo[1,2-a]pyridine-6-carboxylic acid]
EC50: < 500 nM

N#Cc1ccc2nc(-c3ccc(F)cc3)cn2c1 [Example 52, 2-(4-Fluoro-phenyl)-imidazo[1,2-a]pyridine-6-carbonitrile]
EC50: < 500 nM

CCN(CC)c1ccc(-c2cn3cc(C#N)ccc3n2)cc1 [Example 53, 2-(4-Diethylamino-phenyl)-imidazo[1,2-a]pyridine-6-carbonitrile trifluoroacetic acid salt]
EC50: < 500 nM

Cc1ccc(-c2cn3cc(C#N)ccc3n2)cc1 [Example 54, 2-p-Tolyl-imidazo[1,2-a]pyridine-6-carbonitrile]
EC50: < 500 nM

N=C(NO)c1ccc2nc(-c3ccc(F)cc3)cn2c1 [Example 56, 2-(4-Fluoro-phenyl)-N-hydroxy-imidazo[1,2-a]pyridine-6-carboxamidine]
EC50: < 500 nM

Cc1ccc(-c2cn3cc(/C(N)=N/O)ccc3n2)cc1 [Example 57, N-Hydroxy-2-p-tolyl-imidazo[1,2-a]pyridine-6-carboxamidine]
EC50: < 500 nM

CCOC(=O)ONC(=N)c1ccc2nc(-c3ccc(F)cc3)cn2c1 [Example 60, 2-(4-Fluoro-phenyl)-N-ethoxycarbonyloxy-imidazo[1,2-a]pyridine-6-carboxamidine]
EC50: < 500 nM

Fc1ccc(-c2cn3cc(Br)ccc3n2)cc1 [Example 61, 6-Bromo-2-(4-fluoro-phenyl)-imidazo[1,2-a]pyridine]
EC50: < 500 nM

Nc1ccc2nc(-c3ccc(F)cc3)cn2c1 [Example 66, 2-(4-Fluoro-phenyl)-imidazo[1,2-a]pyridin-6-ylamine]
EC50: < 500 nM

O=CNc1ccc2nc(-c3ccc(F)cc3)cn2c1 [Example 67, N-[2-(4-Fluoro-phenyl)-imidazo[1,2-a]pyridin-6-yl]-formamide]
EC50: < 500 nM
